Reference: patent US20080063613A1, “Syndet Bars Having Ultraviolet Radiation Protection” (priority 2004, published 2008)

Assay: physchem
Text: Log P is a measure of differential solubility of a compound in two solvents. The log ratio of the concentrations of the solute in the solvent is called Log P or the Partition Coefficient. The most well-known of these partition coefficients is based on the solvents Octanol and Water.

logP: ~6.9
SMILES: CCCCC(CC)COC(=O)C(C#N)=C(c1ccccc1)c1ccccc1 (stereo not shown) [Octocrylene]
